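Cells were grown in 96-well plates and exposed to each compound for 48 hours at five concentrations; endpoints were interpolated linearly between bracketing concentrations, or set to the highest concentration if not reached. Definition used: TGI = concentration required for complete inhibition of growth.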
Assays:
Assay in all cases: DTP human tumour cell line panel, 48 h
[1] = test system: SK-MEL-2 melanoma
[2] = test system: OVCAR-4 ovarian
[3] = test system: A549 NSCLC
[4] = test system: COLO 205 colon
[5] = test system: MDA-MB-231 breast
[6] = test system: IGROV1 ovarian
[7] = test system: UO-31 renal
[8] = test system: SK-OV-3 ovarian
[9] = test system: ACHN renal
[10] = test system: EKVX NSCLC
[11] = test system: NCI-H226 lung
[12] = test system: NCI/ADR-RES ovarian
[13] = test system: OVCAR-3 ovarian
[14] = test system: SK-MEL-28 melanoma
[15] = test system: MDA-N
[16] = test system: OVCAR-8 ovarian
[17] = test system: RXF 393 renal
[18] = test system: SF-295 CNS
[19] = test system: SW-620 colon
[20] = test system: HCC-2998 colon
[21] = test system: OVCAR-5 ovarian
[22] = test system: SNB-19 CNS
[23] = test system: HL-60(TB) leukemia
[24] = test system: UACC-62 melanoma
[25] = test system: MOLT-4 leukemia
[26] = test system: BT-549 breast
[27] = test system: SK-MEL-5 melanoma
[28] = test system: HOP-92 NSCLC
[29] = test system: SF-268 CNS
[30] = test system: M14 melanoma
[31] = test system: HS 578T breast
[32] = test system: SF-539 CNS
[33] = test system: TK-10 renal
[34] = test system: MALME-3M melanoma
[35] = test system: SNB-75 CNS
[36] = test system: HOP-62 NSCLC
[37] = test system: LOX IMVI melanoma
[38] = test system: CAKI-1 renal
[39] = test system: MDA-MB-435
[40] = test system: NCI-H522 lung
[41] = test system: KM12 colon
[42] = test system: SR leukemia
[43] = test system: CCRF-CEM leukemia
[44] = test system: T-47D breast
[45] = test system: 786-0 renal
[46] = test system: RPMI-8226 leukemia
[47] = test system: HT29 colon
[48] = test system: DU-145 prostate
[49] = test system: PC-3 prostate
[50] = test system: HCT-15 colon
[51] = test system: A498 renal
[52] = test system: U251 CNS
[53] = test system: UACC-257 melanoma
[54] = test system: HCT-116 colon
[55] = test system: NCI-H460 lung
[56] = test system: SN12C renal
[57] = test system: NCI-H23 lung
[58] = test system: K-562 leukemia

Structure (SMILES): CCN(CC)C(=S)N/N=C(\C)c1cccc(C)n1
- TGI [1]: 18 µM
- TGI [2]: 4.24 µM
- TGI [3]: 11.4 µM
- TGI [4]: 12.1 µM
- TGI [5]: 19.6 µM
- TGI [6]: 12.7 µM
- TGI [7]: 5.83 µM
- TGI [8]: 11.3 µM
- TGI [9]: 1.92 µM
- TGI [10]: 15.5 µM
- TGI [11]: 5.7 µM
- TGI [12]: 13.5 µM
- TGI [13]: 0.102 µM
- TGI [14]: 6.47 µM
- TGI [15]: 13.7 µM
- TGI [16]: 16.9 µM
- TGI [17]: 14.4 µM
- TGI [18]: 13.4 µM
- TGI [19]: 17.2 µM
- TGI [20]: 9.6 µM
- TGI [21]: 23.5 µM
- TGI [22]: 22.2 µM
- TGI [23]: 0.626 µM
- TGI [24]: 1.76 µM
- TGI [25]: > 71.5 µM
- TGI [26]: 18.8 µM
- TGI [27]: 1.46 µM
- TGI [28]: 4.49 µM
- TGI [29]: 12.4 µM
- TGI [30]: 4.63 µM
- TGI [31]: > 81.8 µM
- TGI [32]: 1.13 µM
- TGI [33]: 17 µM
- TGI [34]: 7.4 µM
- TGI [35]: 14.1 µM
- TGI [36]: 12.7 µM
- TGI [37]: 2.55 µM
- TGI [38]: 16.6 µM
- TGI [39]: 7.76 µM
- TGI [40]: 0.454 µM
- TGI [41]: 6.53 µM
- TGI [42]: > 100 µM
- TGI [43]: > 100 µM
- TGI [44]: 14.4 µM
- TGI [45]: 1.36 µM
- TGI [46]: 23.4 µM
- TGI [47]: 1.78 µM
- TGI [48]: 4.96 µM
- TGI [49]: 17.5 µM
- TGI [50]: 18 µM
- TGI [51]: 0.572 µM
- TGI [52]: 12.7 µM
- TGI [53]: 13.3 µM
- TGI [54]: 1.34 µM
- TGI [55]: 0.95 µM
- TGI [56]: 13.4 µM

Structure (SMILES): Cc1ccc2nc(-c3ccc(N)c(Br)c3)sc2c1
- TGI [1]: 73.4 µM
- TGI [2]: > 100 µM
- TGI [3]: > 100 µM
- TGI [57]: 96.9 µM
- TGI [4]: > 100 µM
- TGI [5]: 86.4 µM
- TGI [7]: 35.4 µM
- TGI [8]: 88.4 µM
- TGI [58]: > 100 µM
- TGI [9]: > 100 µM
- TGI [10]: 58 µM
- TGI [11]: > 100 µM
- TGI [12]: > 100 µM
- TGI [13]: 40.1 µM
- TGI [14]: > 100 µM
- TGI [15]: > 100 µM
- TGI [16]: > 100 µM
- TGI [17]: 50 µM
- TGI [18]: > 100 µM
- TGI [20]: 14.8 µM
- TGI [21]: > 100 µM
- TGI [22]: > 100 µM
- TGI [23]: > 100 µM
- TGI [24]: > 100 µM
- TGI [25]: 97.5 µM
- TGI [26]: 35.9 µM
- TGI [27]: > 100 µM
- TGI [28]: 50.6 µM
- TGI [29]: > 100 µM
- TGI [30]: > 100 µM
- TGI [31]: 43.6 µM
- TGI [32]: > 100 µM
- TGI [34]: > 100 µM
- TGI [36]: 26.2 µM
- TGI [37]: 30.4 µM
- TGI [38]: > 100 µM
- TGI [39]: 64.1 µM
- TGI [40]: 47.7 µM
- TGI [41]: 30.8 µM
- TGI [42]: 43.2 µM
- TGI [43]: 45.7 µM
- TGI [44]: 59.7 µM
- TGI [45]: > 100 µM
- TGI [47]: > 100 µM
- TGI [48]: > 100 µM
- TGI [49]: > 100 µM
- TGI [50]: > 100 µM
- TGI [51]: > 100 µM
- TGI [52]: > 100 µM
- TGI [53]: 72.2 µM
- TGI [54]: > 100 µM
- TGI [55]: 31.5 µM
- TGI [56]: > 100 µM

Structure (SMILES): CN1C2CCC1CC(CC(=O)NC(c1ccc(F)cc1)c1ccc(F)cc1)C2 (stereo not given)
- TGI [1]: 49 µM
- TGI [2]: > 100 µM
- TGI [3]: > 100 µM
- TGI [57]: > 100 µM
- TGI [4]: 44.2 µM
- TGI [5]: > 100 µM
- TGI [6]: > 100 µM
- TGI [7]: > 100 µM
- TGI [8]: > 100 µM
- TGI [58]: > 100 µM
- TGI [9]: > 100 µM
- TGI [10]: > 100 µM
- TGI [11]: > 100 µM
- TGI [12]: > 100 µM
- TGI [13]: > 100 µM
- TGI [14]: 55.1 µM
- TGI [15]: > 100 µM
- TGI [16]: > 100 µM
- TGI [17]: > 100 µM
- TGI [18]: > 100 µM
- TGI [19]: > 100 µM
- TGI [21]: > 100 µM
- TGI [22]: > 100 µM
- TGI [23]: 6.66 µM
- TGI [25]: > 100 µM
- TGI [26]: > 100 µM
- TGI [27]: 45.1 µM
- TGI [28]: > 100 µM
- TGI [29]: > 100 µM
- TGI [30]: 33.7 µM
- TGI [31]: > 100 µM
- TGI [32]: > 100 µM
- TGI [33]: > 100 µM
- TGI [34]: 60.4 µM
- TGI [35]: > 100 µM
- TGI [36]: > 100 µM
- TGI [37]: > 100 µM
- TGI [38]: > 100 µM
- TGI [39]: > 100 µM
- TGI [40]: > 100 µM
- TGI [41]: > 100 µM
- TGI [42]: 89.5 µM
- TGI [43]: 80.6 µM
- TGI [44]: > 100 µM
- TGI [45]: > 100 µM
- TGI [46]: > 100 µM
- TGI [47]: > 100 µM
- TGI [48]: > 100 µM
- TGI [49]: > 100 µM
- TGI [50]: > 100 µM
- TGI [51]: > 100 µM
- TGI [52]: > 100 µM
- TGI [53]: 39.4 µM
- TGI [54]: > 100 µM
- TGI [55]: > 100 µM
- TGI [56]: > 100 µM

From PubChem BioAssay (NCI)
